Each compound was assayed against T1, EZH2 (Homo sapiens, UniProt Q15910) (assay: Cellular assay of target protein degradation (VCaP cells, ELISA)). Conditions: 4 hours, protein degradation range at indicated concentration (relative to DMSO control).
T1 construct: Protocol of the Cellular Assay of Target Protein Degradation (VCaP Cells, ELISA); endogenous in cells; host or cells: VCaP cells
T1 sequence (Q15910 whole entry): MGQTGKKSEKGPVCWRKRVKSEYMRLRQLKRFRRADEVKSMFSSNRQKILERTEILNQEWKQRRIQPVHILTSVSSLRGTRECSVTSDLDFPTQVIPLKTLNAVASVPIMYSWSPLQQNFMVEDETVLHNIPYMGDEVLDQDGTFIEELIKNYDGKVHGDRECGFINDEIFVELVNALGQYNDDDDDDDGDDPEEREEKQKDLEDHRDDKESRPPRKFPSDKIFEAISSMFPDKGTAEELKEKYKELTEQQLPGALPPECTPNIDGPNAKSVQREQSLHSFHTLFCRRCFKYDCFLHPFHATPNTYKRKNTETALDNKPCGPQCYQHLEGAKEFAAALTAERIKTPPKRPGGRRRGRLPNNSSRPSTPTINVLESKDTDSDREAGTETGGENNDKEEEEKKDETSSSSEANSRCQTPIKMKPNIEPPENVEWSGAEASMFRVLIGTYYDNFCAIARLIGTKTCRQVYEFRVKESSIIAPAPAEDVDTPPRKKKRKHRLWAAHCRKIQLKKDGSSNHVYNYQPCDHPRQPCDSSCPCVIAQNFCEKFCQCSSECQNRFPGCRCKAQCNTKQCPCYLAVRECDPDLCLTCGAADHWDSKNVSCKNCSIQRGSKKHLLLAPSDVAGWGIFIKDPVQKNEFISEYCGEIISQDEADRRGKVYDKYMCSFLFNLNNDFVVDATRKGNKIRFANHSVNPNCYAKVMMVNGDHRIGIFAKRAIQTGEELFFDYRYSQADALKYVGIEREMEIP
T1 sequence (O75530 whole entry partner): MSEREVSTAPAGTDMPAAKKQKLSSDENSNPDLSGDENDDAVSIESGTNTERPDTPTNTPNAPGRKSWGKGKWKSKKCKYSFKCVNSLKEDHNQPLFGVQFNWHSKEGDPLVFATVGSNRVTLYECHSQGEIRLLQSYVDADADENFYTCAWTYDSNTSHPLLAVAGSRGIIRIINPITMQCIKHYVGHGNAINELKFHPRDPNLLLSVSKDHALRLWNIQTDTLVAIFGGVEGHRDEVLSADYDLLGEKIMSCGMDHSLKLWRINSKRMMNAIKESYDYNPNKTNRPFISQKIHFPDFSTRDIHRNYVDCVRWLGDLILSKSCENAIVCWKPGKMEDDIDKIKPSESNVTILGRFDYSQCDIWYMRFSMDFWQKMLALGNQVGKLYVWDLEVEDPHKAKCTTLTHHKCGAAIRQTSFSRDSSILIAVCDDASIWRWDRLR
T1 sequence (Q15022 whole entry partner): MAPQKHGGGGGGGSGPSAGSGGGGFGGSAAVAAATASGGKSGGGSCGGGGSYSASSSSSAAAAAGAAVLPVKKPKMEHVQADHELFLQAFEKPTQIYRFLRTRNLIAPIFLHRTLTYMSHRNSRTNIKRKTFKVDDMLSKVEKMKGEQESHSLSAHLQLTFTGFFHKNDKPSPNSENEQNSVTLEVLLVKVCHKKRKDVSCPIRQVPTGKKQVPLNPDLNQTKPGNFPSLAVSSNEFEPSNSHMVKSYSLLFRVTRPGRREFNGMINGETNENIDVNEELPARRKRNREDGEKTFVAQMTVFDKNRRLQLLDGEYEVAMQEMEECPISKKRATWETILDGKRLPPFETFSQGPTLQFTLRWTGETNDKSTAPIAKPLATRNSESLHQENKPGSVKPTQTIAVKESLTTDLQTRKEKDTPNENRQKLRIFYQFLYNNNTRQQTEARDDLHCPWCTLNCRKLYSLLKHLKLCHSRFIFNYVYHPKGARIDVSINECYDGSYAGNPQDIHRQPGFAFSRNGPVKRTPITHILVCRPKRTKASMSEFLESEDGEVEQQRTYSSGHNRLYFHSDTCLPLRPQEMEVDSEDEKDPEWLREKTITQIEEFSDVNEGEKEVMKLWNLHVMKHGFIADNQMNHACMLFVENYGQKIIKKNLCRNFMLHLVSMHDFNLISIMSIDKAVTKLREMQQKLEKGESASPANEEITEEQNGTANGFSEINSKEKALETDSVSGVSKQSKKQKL
Format: cell-based
Procedure: Protocol of the Cellular Assay of Target Protein Degradation (VCaP Cells, ELISA).
For detection Cell Signaling PathScan Sandwich ELISA Catalog #12850 Lot 11 was used. VCaP cells were cultured in ATCC DMEM+ATCC FBS and plated 40,000/well 100 μl/well in RPMI P/S with 5% CSS Omega (bovine) serum into a 96 well plate. The cells were grown for a minimum of 3 days, dosed with compounds in 0.1% DMSO (diluted with 5% CSS) and incubated with aspiration for 4 hours. 100 μl of 1× Cell Signaling lysis buffer #9803 (36 mL dH2O+4 mL Cell Signaling lysis buffer) was added. The incubation was placed on cold room shaker for 10 minutes at speed 8-9. 5 μl to 100 μL of Diluent was transferred to ELISA plate (0.15 μg/mL−0.075 μg/mL) and stored at 4° C. overnight on cold room shaker speed 5 (gentle swirl) and then shaken next morning at 37° C. for 30 minutes. The preparation was washed 4×200 μl with ELISA wash buffer and aspirated with eight-channel aspirator. 100 μl/well of target protein detection antibody was added after, which the preparation was covered and shaken at 37° C. for 1 hour. 100 μl TMB was added, and the mixture was shaken for 5 min while under observation. When TMB turned light blue, 100 μl of Stop solution was added, and the mixture was shaken and read at 450 nm. Also read at 562 nm for background subtraction.
In the case of `Cc1cc(C)c(CNC(=O)c2cc(-c3ccc(CN4CCN(CCOCCCCOCCCCOCC(=O)N[C@H](C(=O)N5C[C@H](O)C[C@H]5C(=O)NCc5ccc(-c6scnc6C)cc5)C(C)(C)C)CC4)cc3)cc3c2ccn3C2CCCC2)c(=O)[nH]1` [Compound 5, 1-cyclopentyl-N-[(4,6-dimethyl-2-oxo-1,2-dihydropyridin-3-yl)methyl]-6-(4-{[4-(2-{4-[4-({[(2S)-1-[(2S,4R)-4-hydroxy-2-({[4-(4-methyl-1,3-thiazol-5-yl)phenyl]methyl}carbamoyl)pyrrolidin-1-yl]-3,3-dimethyl-1-oxobutan-2-yl]carbamoyl}methoxy)butoxy]butoxy}ethyl)piperazin-1-yl]methyl}phenyl)-1H-indole-4-carboxamide], the “percent target protein degradation class” value is reported as “B (B = degradation between 30% and 60%)”. `Cc1cc(C)c(CNC(=O)c2c(C)n(C(C)C3CCN(C(=O)COCCOCCOCCOCCOCC(=O)N[C@H](C(=O)N4C[C@H](O)C[C@H]4C(=O)NCc4ccc(-c5scnc5C)cc4)C(C)(C)C)CC3)c3ccccc23)c(=O)[nH]1` (stereo partly drawn) [Compound 11, N-[(4,6-dimethyl-2-oxo-1,2-dihydropyridin-3-yl)methyl]-1-{1-[1-(1-{[(2S)-1-[(2S,4R)-4-hydroxy-2-({[4-(4-methyl-1,3-thiazol-5-yl)phenyl]methyl}carbamoyl)pyrrolidin-1-yl]-3,3-dimethyl-1-oxobutan-2-yl]carbamoyl}-2,5,8,11,14-pentaoxahexadecanoyl)piperidin-4-yl]ethyl}-2-methyl-1H-indole-3-carboxamide] was tested, and the “percent target protein degradation class” value was “B (B = degradation between 30% and 60%)”. For “(2R,3S,4R,5S)-3-(3-chloro-2- fluorophenyl)-4-(4-chloro-2- fluorophenyl)-4-cyano-N-[4- ({1-[4-(3-{[(4,6-dimethyl-2- oxo-1,2-dibydropyridin-3- yl)methyl]carbamoyl}-5- [ethyl(oxan-4-yl)amino]-4- methylphenyl)phenyl]-1,4,7,10- tetraoxadodecan-12- yl}carbamoyl)-2- methoxyphenyl]-5-(2,2- dimethylpropyl)pyrrolidine-2- carboxamide [Compound 24]”, the “percent target protein degradation class” value was “B (B = degradation between 30% and 60%)”. With “(2R,3S,4R,5S)-3-(3-chloro-2- fluorophenyl)-4-(4-chloro-2- fluorophenyl)-4-cyano-N-[4- ({1-[4-(3-{[(4,6-dimethyl-2- oxo-1,2-dihydropyridin-3- yl)methyl]carbamoyl}-5- [ethyl(oxan-4-yl)amino]-4- methylphenyl)phenyl- 1,4,7,10,13,16- hexaoxaoctadecan-18- yl}carbamoyl)-2- methoxyphenyl]-5-(2,2- dimethylpropyl)pyrrolidine-2- carboxamide [Compound 27]” the “percent target protein degradation class” value was “B (B = degradation between 30% and 60%)”. In the case of `CCN(c1cc(-c2ccc(OCCCOCCCOc3ccc4c(c3)C(=O)N(C3CCC(=O)NC3=O)C4=O)cc2)cc(C(=O)NCc2c(C)cc(C)[nH]c2=O)c1C)C1CCOCC1` (stereo not shown) [Compound 62, N-[(4,6-dimethyl-2-oxo-1,2-dihydropyridin-3-yl)methyl]-5-{4-[3-(3-{[2-(2,6-dioxopiperidin-3-yl)-1,3-dioxo-2,3-dihydro-1H-isoindol-5-yl]oxy}propoxy)propoxy]pheny 1}-3-[ethyl(oxan-4-yl)amino]-2-methylbenzamide], the “percent target protein degradation class” value is reported as “B (B = degradation between 30% and 60%)”. With `CCN(c1cc(-c2ccc(OCCCOCCOCCOc3cc(-c4scnc4C)ccc3CNC(=O)[C@@H]3C[C@@H](O)CN3C(=O)[C@H](C(C)C)N3Cc4ccccc4C3=O)cc2)cc(C(=O)NCc2c(C)cc(C)[nH]c2=O)c1C)C1CCOCC1` [Compound 54, (2S,4R)-N-({2-[2-(2-{3-[4-(3-{[(4,6-dimethyl-2-oxo-1,2-dihydropyridin-3-yl)methyl]carbamoyl}-5-[ethyl(oxan-4-yl)amino]-4-methylphenyl)phenoxy]propoxy}ethoxy)ethoxy]-4-(4-methyl-1,3-thiazol-5-yl)phenyl}methyl)-4-hydroxy-1-[(2S)-3-methyl-2-(1-oxo-2,3-dihydro-1H-isoindol-2-yl)butanoyl]pyrrolidine-2-carboxamide] the “percent target protein degradation class” value was “B (B = degradation between 30% and 60%)”. In the case of `CCN(c1cc(-c2ccc(OCCOCCOCC(=O)N[C@H](C(=O)N3C[C@@H](O)C[C@@H]3C(=O)N[C@@H](C)c3ccc(-c4scnc4C)cc3)C(C)(C)C)cc2)cc(C(=O)NCc2c(C)cc(C)[nH]c2=O)c1C)C1CCOCC1` [Compound 96, (2R,4S)-1-((S)-2-(2-(2-(2-((3′-(((4,6-dimethyl-2-oxo-1,2-dihydropyridin-3-yl)methyl)carbamoyl)-5′-(ethyl(tetrahydro-2H-pyran-4-yl)amino)-4′-methyl-[1,1′-biphenyl]-4-yl)oxy)ethoxy)ethoxy)acetamido)-3,3-dimethylbutanoyl)-4-hydroxy-N-((S)-1-(4-(4-methylthiazol-5-yl)phenyl)ethyl)pyrrolidine-2-carboxamide], the “percent target protein degradation class” value is reported as “B (B = degradation between 30% and 60%)”. For `Cc1cc(C)c(CNC(=O)c2cc(-c3ccc(CN4CCN(CCOCCCOCCCOCC(=O)N[C@H](C(=O)N5C[C@H](O)C[C@H]5C(=O)NCc5ccc(-c6scnc6C)cc5)C(C)(C)C)CC4)cc3)cc3c2ccn3C2CCCC2)c(=O)[nH]1` [Compound 4, 1-cyclopentyl-N-[(4,6-dimethyl-2-oxo-1,2-dihydropyridin-3-yl)methyl]-6-(4-{[4-(2-{3-[3-({[(2S)-1-[(2S,4R)-4-hydroxy-2-({[4(4-methyl-1,3-thiazol-5-yl)phenyl]methyl}carbamoyl)pyrrolidin-1-yl]-3,3-dimethyl-1-oxobutan-2-yl]carbamoyl}methoxy)propoxy]propoxy}ethyl)piperazin-1-yl]methyl}phenyl)-1H-indole-4-carboxamide], the “percent target protein degradation class” value was “B (B = degradation between 30% and 60%)”. With `CCN(c1cc(-c2ccc(OCCN3CCN(c4ccc5c(c4)C(=O)N(C4CCC(=O)NC4=O)C5=O)CC3)cc2)cc(C(=O)NCc2c(C)cc(C)[nH]c2=O)c1C)C1CCOCC1` (stereo not shown) [Compound 91, N-((4,6-dimethyl-2-oxo-1,2-dihydropyridin-3-yl)methyl)-4′-(2-(4-(2-(2,6-dioxopiperidin-3-yl)-1,3-dioxoisoindolin-5-yl)piperazin-1-yl)ethoxy)-5-(ethyl(tetrahydro-2H-pyran-4-yl)amino)-4-methyl-[1,1′-biphenyl]-3-carboxamide] the “percent target protein degradation class” value was “A (A = degradation more than 60%)”. `CCN(c1cc(-c2ccc(OCCCOCCCCOc3cc(-c4scnc4C)ccc3CNC(=O)[C@@H]3C[C@@H](O)CN3C(=O)[C@H](C(C)C)N3Cc4ccccc4C3=O)cc2)cc(C(=O)NCc2c(C)cc(C)[nH]c2=O)c1C)C1CCOCC1` [Compound 51, (2S,4R)-N-{[2-(4-{3-[4-(3-{[(4,6-dimethyl-2-oxo-1,2-dihydropyridin-3-yl)methyl]carbamoyl}-5-[ethyl(oxan-4-yl)amino]-4-methylphenyl)phenoxy]propoxy}butoxy)-4-(4-methyl-1,3-thiazol-5-yl)phenyl]methyl}-4-hydroxy-1-[(2S)-3-methyl-2-(1-oxo-2,3-dihydro-1H-isoindol-2-yl)butanoyl]pyrrolidine-2-carboxamide] was tested, and the “percent target protein degradation class” value was “B (B = degradation between 30% and 60%)”. With `CCN(c1cc(-c2ccc(OCCCCOCCCOc3cc(-c4scnc4C)ccc3CNC(=O)[C@@H]3C[C@@H](O)CN3C(=O)[C@H](C(C)C)N3Cc4ccccc4C3=O)cc2)cc(C(=O)NCc2c(C)cc(C)[nH]c2=O)c1C)C1CCOCC1` [Compound 40, (2S,4R)-N-{[2-(3-{4-[4-(3-{[(4,6-dimethyl-2-oxo-1,2-dihydropyridin-3-yl)methyl]carbamoyl}-5-[ethyl(oxan-4-yl)amino]-4-methylphenyl)phenoxy]butoxy}propoxy)-4-(4-methyl-1,3-thiazol-5-yl)phenyl]methyl}-4-hydroxy-1-[(2S)-3-methyl-2-(1-oxo-2,3-dihydro-1H-isoindol-2-yl)butanoyl]pyrrolidine-2-carboxamide] the “percent target protein degradation class” value was “B (B = degradation between 30% and 60%)”. For `CCN(c1cc(-c2ccc(OCCOCCOc3ccc4c(c3)C(=O)N(C3CCC(=O)NC3=O)C4=O)cc2)cc(C(=O)NCc2c(C)cc(C)[nH]c2=O)c1C)C1CCOCC1` (stereo not shown) [Compound 57, N-[(4,6-dimethyl-2-oxo-1,2-dihydropyridin-3-yl)methyl]-5-{4-[2-(2-{[2-(2,6-dioxopiperidin-3-yl)-1,3-dioxo-2,3-dihydro-1H-isoindol-5-yl]oxy}ethoxy)ethoxy]phenyl}-3-[ethyl(oxan-4-yl)amino]-2-methylbenzamide], the “percent target protein degradation class” value was “B (B = degradation between 30% and 60%)”. In the case of `CCN(c1cc(-c2ccc(CCCOCCOc3cc(C(C(=O)N4C[C@H](O)C[C@H]4C(=O)N[C@@H](C)c4ccc(-c5scnc5C)cc4)C(C)C)on3)cc2)cc(C(=O)NCc2c(C)cc(C)[nH]c2=O)c1C)C1CCOCC1` (stereo partly drawn) [Compound 111, (2S,4R)-1-(2-(3-(2-(3-(3′-(((4,6-dimethyl-2-oxo-1,2-dihydropyridin-3-yl)methyl)carbamoyl)-5′-(ethyl(tetrahydro-2H-pyran-4-yl)amino)-4′-methyl-[1,1′-biphenyl]-4-yl)propoxy)ethoxy)isoxazol-5-yl)-3-methylbutanoyl)-4-hydroxy-N-((S)-1-(4-(4-methylthiazol-5-yl)phenyl)ethyl)pyrrolidine-2-carboxamide], the “percent target protein degradation class” value is reported as “A (A = degradation more than 60%)”.

Reference: US11857519B2, “Compounds and methods for the targeted degradation of enhancer of zeste homolog 2 polypeptide” (Arvinas Operations, Inc., priority 2016, dated 2024)
